Data reported in patent publication EP2366702A1, “New oxadiazole derivatives” (Almirall, S.A., priority 2010, dated 2011).

Each compound was assayed against S1P1 (Homo sapiens, UniProt P21453) (assay: 35S-GTPyS binding assay). Conditions: membranes; 10µM S1P used as 100% maximum efficacy; 90 min at room temperature.
Assay type: biochemical
Method: The effect of the compounds was measured using a 35S-GTPyS binding assay. Briefly, membranes were incubated in a buffer containing 20 mM HEPES pH 7.4, 100 mM NaCl, 10 mM MgCl2, 10µM GDP, 50µg/ml saponin and 0.2% fatty acid-free BSA at various concentrations (0.1nM-10µM) and 0.1nM 35S-GTPyS. 10µM S1P was used as 100% maximum efficacy. The assay was incubated for 90 min at room temperature with gentle mixing, and terminated by filtrating the reaction mixture through GF/C filter plates using the Manifold Filtration System. The filters were immediately washed with sodium phosphate pH 7.4 buffers. After drying the filter plate's scintillant liquid were added to each well and 35S-GTPyS binding was measured on a Trilux Scintillation Counter.

S1P1, sequence (P21453 whole entry, species assumed): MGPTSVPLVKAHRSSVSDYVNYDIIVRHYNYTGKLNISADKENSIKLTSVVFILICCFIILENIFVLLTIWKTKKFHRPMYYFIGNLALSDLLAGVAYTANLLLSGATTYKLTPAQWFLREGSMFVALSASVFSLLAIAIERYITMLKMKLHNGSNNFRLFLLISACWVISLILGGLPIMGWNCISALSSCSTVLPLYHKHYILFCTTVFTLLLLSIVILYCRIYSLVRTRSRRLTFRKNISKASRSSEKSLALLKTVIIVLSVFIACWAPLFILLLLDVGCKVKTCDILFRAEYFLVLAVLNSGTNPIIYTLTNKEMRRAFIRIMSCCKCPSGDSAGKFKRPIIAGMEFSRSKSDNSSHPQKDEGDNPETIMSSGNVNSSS

Row | SMILES | EC50
1 | Cc1cc(-c2noc(-c3nn(C)c4c3CCC(C)(C)C4)n2)cc(C)c1CCn1cc(C(=O)O)cn1 [Example 22, 1-(2-{2,6-dimethyl-4-[5-(1,6,6-trimethyl-4,5,6,7-tetrahydro-1H-indazol-3-yl)-1,2,4-oxadiazol-3-yl]phenyl}ethyl)-1H-pyrazole-4-carboxylic acid] | 6.37 nM
2 | Cc1cc(-c2noc(-c3nn(C)c4c3CCC(C)(C)C4)n2)cc(C)c1CCn1nccc1C(=O)O [Example 24, 1-(2-{2,6-dimethyl-4-[5-(1,6,6-trimethyl-4,5,6,7-tetrahydro-1H-indazol-3-yl)-1,2,4-oxadiazol-3-yl]phenyl}ethyl)-1H-pyrazole-5-carboxylic acid] | 10.3 nM
3 | Cc1cc(-c2noc(-c3nn(C)c4c3CCC(C)(C)C4)n2)cc(C)c1CCP(=O)(O)O [Example 21, (2-{2,6-dimethyl-4-[5-(1,6,6-trimethyl-4,5,6,7-tetrahydro-1H-indazol-3-yl)-1,2,4-oxadiazol-3-yl]phenyl}ethyl)phosphonic acid] | 3.08 nM
4 | Cc1cc(-c2noc(-c3nn(C)c4c3CCC(C)(C)C4)n2)cc(C)c1CCNC(=O)CN [Example 2, N-1-(2-{2,6-dimethyl-4-[5-(1,6,6-trimethyl-4,5,6,7-tetrahydro-1H-indazol-3-yl)-1,2,4-oxadiazol-3-yl]phenyl}ethyl)glycinamide] | 1.99 nM

Further compounds by falling EC50, results first:

Row | EC50 | SMILES
5 | 37.5 nM | Cc1cc(-c2noc(-c3nn(C)c4c3CCC(C)(C)C4)n2)cc(C)c1CCC(C)(C)O [Example 17, 4-{2,6-dimethyl-4-[5-(1,6,6-trimethyl-4,5,6,7-tetrahydro-1H-indazol-3-yl)-1,2,4-oxadiazol-3-yl]phenyl}-2-methylbutan-2-ol]
6 | 19.2 nM | Cc1cc(-c2noc(-c3nn(C)c4c3CCC(C)(C)C4)n2)cc(C)c1CCNCCn1cncn1 [Example 6, (2-{2,6-dimethyl-4-[5-(1,6,6-trimethyl-4,5,6,7-tetrahydro-1H-indazol-3-yl)-1,2,4-oxadiazol-3-yl]phenyl}ethyl)[2-(1H-1,2,4-triazol-1-yl)ethyl]amine]
7 | 12.1 nM | Cc1cc(-c2noc(-c3nn(C)c4c3CCC(C)(C)C4)n2)cc(C)c1CCn1cncn1 [Example 16, 3-(3-{3,5-dimethyl-4-[2-(1H-1,2,4-triazol-1-yl)ethyl]phenyl}-1,2,4-oxadiazol-5-yl)-1,6,6-trimethyl-4,5,6,7-tetrahydro-1H-indazole]
